23 compounds from patent publication US9012441B2, “Therapeutic compounds” (Gilead Sciences, Inc., priority 2013, dated 2015) can be followed below.

Where two headings read alike, the source gives them in different places. A value given as a limit tells only on which side of the number the result lay.

One data set deals with HIV-IIIb. In words: Test A: Antiviral Assay in MT4 Cells. Format: cell-based, HIV-1. As to conditions: Human immunodeficiency virus 1, MT4, 120 h, read-out: % Inh @ 2 uM (percent inhibition of virus-induced cell killing); 2 uM test compound; MT-4 cells infected with HIV-IIIb, 5 days, CellTiter-Glo. As to the method: (§1) Test A: Antiviral Assay in MT4 Cells For the antiviral assay, 40 μL of 1× test concentration of 3-fold serially diluted compound in culture medium with 10% FBS was added to each well of a 384-well plate (10 concentrations) in quadruplicate. MT-4 cells were next mixed with HIV-IIIb at an m.o.i of 0.003 for 1 hour, after which time 35 μL of virus/cell mixture (2000 cells) was immediately added to each well containing 40 μL of diluted compound. The plates were then incubated at 37° C. for 5 days. After 5 days of incubation, 25 μl of 2× concentrated CellTiter-Glo™ Reagent (catalog #G7571, Promega Biosciences, Inc., Madison, Wis.) was added to each well containing MT-4 cells. Cell lysis was carried out by incubating at room temperature for 10 min and then chemiluminescence was read. […] Accordingly, the compounds disclosed herein may be useful for treating an HIV virus infection, treating AIDS or for delaying the onset of AIDS or ARC symptoms.
(In general: Cellular ATP, detected with luciferase, serves as a proxy for viable cell number.)

The nature of data set [1]: Test B: Cytotoxicity Assay (uninfected MT-4 cells). The following applies: human, same protocol as Test A, read-out: MT4-CC50. Format: cell-based. As to the method:
as §1, with “For” for “Test A: Antiviral Assay in MT4 Cells For”, “Test B: Cytotoxicity Assay Compound cytotoxicity and” for “Accordingly,”, “corresponding CC50 values were determined using” for “compounds disclosed herein may be useful for treating an HIV virus infection, treating AIDS or for delaying”, “same protocol as described in the antiviral assay (Test A) except that uninfected cells were used.” for “onset of AIDS or ARC symptoms.”

For the setting “from COc1ccc(N(C)C(=O)[C@@H](N)Cc2cccc(SCc3[nH]c4ccccc4c3CC(=O)O)c2)cc1, amide bond, DPPA, DIPEA, DMF, 3.01 mM, 25.0 °C, 16.0 h”, `COc1ccc(N(C)C(=O)[C@@H]2Cc3cccc(c3)SCc3[nH]c4ccccc4c3CC(=O)N2)cc1` [Example 18, (9S)—N-(4-methoxyphenyl)-N-methyl-11-oxo-8,9,10,11,12,17-hexahydro-1H-7,3-(metheno)[1,7]thiazacyclotetradecino[3,4-b]indole-9-carboxamide] registered a ring closure, yield of all isomers of 65.5%. Also, in the data set with HIV-IIIb, the inhibition (usually the change of the read-out against control, counted positive when it falls) at 2 µM was 47.3%. Moreover, the 50% cytotoxic concentration (CC50) (commonly the concentration that lowers cell viability or growth by half) at 5 days in data set [1] was > 53 µM.

For the compound `COC(=O)[C@@H]1Cc2cc(F)cc(c2)/C=C\Cc2c(c3ccccc3n2C(=O)OC(C)(C)C)CC(=O)N1`, where the note is “from C=CCc1c(CC(=O)N[C@@H](Cc2cc(F)cc(Br)c2)C(=O)OC)c2ccccc2n1C(=O)OC(C)(C)C, cc_pd bond, Pd(PPh3)4, acetonitrile, 4.3 mM, 82.0 °C, 6.0 h”, the ring closure, yield of all isomers amounted to 49.9%. Regarding `CN(C(=O)N1Cc2cc(F)cc(c2)/C=C\Cc2c(c3ccccc3n2C(=O)OC(C)(C)C)CC(=O)N1)c1ccc(Cl)cc1`, the ring closure, yield of all isomers (from C=CCc1c(CC(=O)NN(Cc2cc(F)cc(Br)c2)C(=O)N(C)c2ccc(Cl)cc2)c2ccccc2n1C(=O)OC(C)(C)C, cc_pd bond, Pd(OAc)2, acetonitrile, 3.1 mM, 110.0 °C, 1.0 h) was found to be 23.6%. As for `COc1ccc(N(C)C(=O)[C@@H]2Cc3cccc(c3)/C=C\c3[nH]c4ccccc4c3CC(=O)N2)cc1` [Example 17, (4S,11Z)—N-(4-methoxyphenyl)-N-methyl-2-oxo-1,2,3,4,5,13-hexahydro-6,10-(metheno)azacyclotetradecino[5,4-b]indole-4-carboxamide], the inhibition at 2 µM in the data set with HIV-IIIb turned out to be 4.7%. Besides, the CC50 at 5 days in data set [1] is > 53 µM. With `COc1ccc(N(C)C(=O)[C@@H]2Cc3cccc(c3)CCSCc3[nH]c4ccccc4c3CC(=O)N2)cc1` [Example 5, (11S)—N-(4-methoxyphenyl)-N-methyl-13-oxo-3,4,10,11,12,13,14,19-octahydro-1H-9,5-(metheno)[1,7]thiazacyclohexadecino[3,4-b]indole-11-carboxamide], the ring closure, yield of all isomers (from COc1ccc(N(C)C(=O)[C@@H](N)Cc2cccc(CCSCc3[nH]c4ccccc4c3CC(=O)O)c2)cc1, amide bond, DPPA, DIPEA, DMF, 2.95 mM, 25.0 °C, 16.0 h) was 65.8%. The inhibition at 2 µM in the data set on HIV-IIIb stood at 33.4%. Moreover, the CC50 at 5 days in data set [1] was determined as 49.5 µM.

On to `COc1ccc2[nH]c3c(c2n1)CC(=O)N[C@H](C(=O)N(C)c1ccc(Cl)cc1)Cc1cccc(c1)CC3` [Example 28, (14S)—N-(4-chlorophenyl)-2-methoxy-N-methyl-16-oxo-5,6,7,13,14,15,16,17-octahydro-12,8-(metheno)pyrido[2′,3′:4,5]pyrrolo[3,2-d]azacyclotetradecine-14-carboxamide], for which, in the data set on HIV-IIIb, the inhibition at 2 µM worked out at 63.9%. Moreover, in data set [1], the CC50 at 5 days worked out at 18.3 µM.

For `COc1ccc(N(C)C(=O)[C@@H]2Cc3cccc(c3)CCc3[nH]c4ccccc4c3CC(=O)N2)cc1` [Example 3], the inhibition at 2 µM in the data set on HIV-IIIb was 99.2%. Also, the CC50 at 5 days in data set [1] is > 53 µM.

With `COc1ccc(N(C)C(=O)[C@@H]2Cc3cccc(c3)CCS(=O)(=O)Cc3[nH]c4ccc(F)cc4c3CC(=O)N2)cc1` [Example 10], the inhibition at 2 µM in the data set with HIV-IIIb worked out at 1.8%. The CC50 at 5 days in data set [1] is > 53 µM. As for `CN(C(=O)N1Cc2cc(F)cc(c2)CCCc2[nH]c3ccccc3c2CC(=O)N1)c1ccc(Cl)cc1` [Example 31, N-(4-chlorophenyl)-8-fluoro-N-methyl-2-oxo-2,3,11,12,13,14-hexahydro-1H-6,10-(metheno)[1,2]diazacyclopentadecino[6,5-b]indole-4(5H)-carboxamide], the inhibition at 2 µM in the data set on HIV-IIIb worked out at 2.4%. Moreover, the CC50 at 5 days in data set [1] came out at 21.7 µM. The matching figures for `COc1ccc(N(C)C(=O)[C@@H]2Cc3cc(F)cc(c3)C/C=C/c3[nH]c4ccccc4c3CC(=O)N2)cc1` [Example 27, (4S,12E)-8-fluoro-N-(4-methoxyphenyl)-N-methyl-2-oxo-2,3,4,5,11,14-hexahydro-1H-6,10-(metheno)azacyclopentadecino[5,4-b]indole-4-carboxamide]: 92.5% and 18.9 µM. `COC(=O)[C@@H]1Cc2cccc(c2)C/C=C/c2[nH]c3ccc(OC)nc3c2CC(=O)N1` showed a ring closure, yield of all isomers (from C=CCc1cccc(C[C@H](NC(=O)Cc2c(Br)n(C(=O)OC(C)(C)C)c3ccc(OC)nc23)C(=O)OC)c1, cc_pd bond, Pd(OAc)2, DMF, 2.46 mM, 120.0 °C, 5.0 h) of 33.3%. For `COc1ccc(N(C)C(=O)[C@@H]2Cc3cccc(c3)CCCCc3[nH]c4ccccc4c3CC(=O)N2)cc1` [Example 4], the inhibition at 2 µM with HIV-IIIb is 79.6%. Further, in data set [1], the CC50 at 5 days is > 48.7 µM. For `COc1ccc(N(C)C(=O)[C@@H]2Cc3cccc(c3)CC=Cc3[nH]c4ccccc4c3CC(=O)N2)cc1` (stereo in doubt) [Example 11, (4S,12Z)—N-(4-methoxyphenyl)-N-methyl-2-oxo-2,3,4,5,11,14-hexahydro-1H-6,10-(metheno)azacyclopentadecino[5,4-b]indole-4-carboxamide] the same measures were 102% and 23.9 µM. As for `COc1ccc(N(C)C(=O)[C@@H]2Cc3cccc(c3)CCCc3[nH]c4ccccc4c3CC(=O)N2)cc1` [Example 1, (4S)—N-(4-methoxyphenyl)-N-methyl-2-oxo-2,3,4,5,11,12,13,14-octahydro-1H-6,10-(metheno)azacyclopentadecino[5,4-b]indole-4-carboxamide], the ring closure, yield of all isomers (from COc1ccc(N(C)C(=O)[C@@H](N)Cc2cccc(CCCc3[nH]c4ccccc4c3CC(=O)O)c2)cc1, amide bond, DPPA, DIPEA, DMF, 2.99 mM, 25.0 °C, 16.0 h) is 23.9%. In addition, the inhibition at 2 µM in the data set with HIV-IIIb stood at 103%. The CC50 at 5 days in data set [1] was > 50.3 µM. Regarding `COc1ccc(N(C)C(=O)[C@@H]2Cc3cccc(c3)/C=C/Cc3c(c4ccccc4n3C(=O)OC(C)(C)C)CC(=O)N2)cc1`, for the setting “from C=CCc1c(CC(=O)N[C@@H](Cc2cccc(I)c2)C(=O)N(C)c2ccc(OC)cc2)c2ccccc2n1C(=O)OC(C)(C)C, cc_pd bond, Pd2(dba)3, acetonitrile, 19.6 mM, 82.0 °C”, the ring closure, yield of all isomers was 57.4%. In the case of `COc1ccc(N(C)C(=O)[C@@H]2Cc3cccc(c3)/C=C/Cc3[nH]c4ccccc4c3CC(=O)N2)cc1` [Example 22, (4S,11E)-N-(4-methoxyphenyl)-N-methyl-2-oxo-2,3,4,5,13,14-hexahydro-1H-6,10-(metheno)azacyclopentadecino[5,4-b]indole-4-carboxamide], the inhibition at 2 µM in the data set with HIV-IIIb was 64.5%. In data set [1], the CC50 at 5 days is > 52.6 µM. For `COc1ccc(N(C)C(=O)[C@@H]2Cc3cccc(c3)C/C=C\c3[nH]c4ccccc4c3CC(=O)N2)cc1` [Example 13] the same measures were 99% and > 53 µM. With `COc1ccc(N(C)C(=O)[C@@H]2Cc3cccc(c3)CCSCc3[nH]c4ccc(O)cc4c3CC(=O)N2)cc1` [Example 6], the inhibition at 2 µM in the data set with HIV-IIIb came out at 94.3%. In addition, the CC50 at 5 days in data set [1] came to 49.2 µM. The matching figures for `COc1ccc(N(C)C(=O)[C@@H]2Cc3cccc(c3)C/C=C\c3[nH]c4ccc(F)cc4c3CC(=O)N2)cc1` [Example 14]: 95.6% and 44.3 µM. For `COc1ccc(N(C)C(=O)[C@@H]2Cc3cc(F)cc(c3)CCCc3[nH]c4ccccc4c3CC(=O)N2)cc1` [Example 23K, (4S)-8-fluoro-N-(4-methoxyphenyl)-N-methyl-2-oxo-2,3,4,5,11,12,13,14-octahydro-1H-6,10-(metheno)azacyclopentadecino[5,4-b]indole-4-carboxamide] the same measures were 94% and > 50.3 µM. Turning to `CN(Cc1ccccc1)C(=O)[C@@H]1Cc2cc(F)cc(c2)CCCc2[nH]c3ccccc3c2CC(=O)N1` [Example 25, (4S)—N-benzyl-8-fluoro-N-methyl-2-oxo-2,3,4,5,11,12,13,14-octahydro-1H-6,10-(metheno)azacyclopentadecino[5,4-b]indole-4-carboxamide], the inhibition at 2 µM with HIV-IIIb amounted to 84.9%. Further, the CC50 at 5 days in data set [1] worked out at 52.3 µM. For `CN(C(=O)[C@@H]1Cc2cccc(c2)CCCc2[nH]c3ccc(=O)[nH]c3c2CC(=O)N1)c1ccc(Cl)cc1` [Example 30, (15S)—N-(4-chlorophenyl)-N-methyl-2,17-dioxo-1,5,6,7,8,14,15,16,17,18-decahydro-2H-13,9-(metheno)pyrido[2′,3′:4,5]pyrrolo[3,2-d]azacyclopentadecine-15-carboxamide] the same measures were 0% and 24.4 µM. Consider `COc1ccc(N(C)C(=O)[C@@H]2Cc3cccc(c3)C/C=C/c3[nH]c4ccc(F)cc4c3CC(=O)N2)cc1` [Example 12], for which, in the data set with HIV-IIIb, the inhibition at 2 µM stood at 85.5%. In data set [1], the half-maximal cytotoxic concentration (CC50) at 5 days is 31.8 µM.
